This note sets out measurements from patent US20110224170A1, “Pyranopyranone derivatives as antimicrobial agents” (BASF SE, priority 2010, published 2011).

Values after ≈ are worked out from the molar mass of the structure shown.

Experiment [1] relates to Candida albicans ATCC 10231. In words: Suspension test for fungicidal activity (modified EN 1275), residual cell count. It is filed as cell-based. To be noted: C. albicans. As for the experimental part: The fungicidal activity of the compounds of the present invention is measured in a suspension test according to trivial modifications of the European Standard method EN 1275. The pyrano pyranone derivatives are dissolved in ethanol or DMSO resulting in 1% stock solutions of the compounds. The cell density of Candida albicans ATCC 10231 used as inoculum for the suspension test was 2.4×10^8 cfu/ml and of A. niger ATCC 6275 3.8×10^8 cfu/ml. For the suspension tests, an appropriate concentration of the test compound is mixed with a Candida albicans suspension resulting in a final cell count of about 10^5 cfu/ml. These test mixtures are incubated at room temperature (22° C.+/−2° C.) and aliquots of 1 ml test mixture containing Candida albicans were taken after set contact times for determination of the residual cell count. For inactivation of the antimicrobial compounds, the 1 ml aliquots are diluted in 1:10 steps in a solution with 10% Tween, 3% lecithin, 0.1% histidine and 0.5% sodium thiosulfate.

Another experiment relates to A. niger ATCC 6275. The description is as above. It is filed as cell-based, Aspergillus niger. How it is done: The fungicidal activity of the compounds of the present invention is measured in a suspension test according to trivial modifications of the European Standard method EN 1275. The pyrano pyranone derivatives are dissolved in ethanol or DMSO resulting in 1% stock solutions of the compounds. The cell density of Candida albicans ATCC 10231 used as inoculum for the suspension test was 2.4×10^8 cfu/ml and of A. niger ATCC 6275 3.8×10^8 cfu/ml. Aliquots of 1 ml were taken of the A. niger containing test mixtures after set contact times for determination of the residual cell count. For inactivation of the antimicrobial compounds, the 1 ml aliquots were diluted in 1:10 steps in a solution of the following composition: [table]

Experiment [2] deals with gram positive and gram negative bacteria. Nature of the experiment: Suspension test for bactericidal activity (modified EN 1040), residual cell count. The class given is cell-based. As for the experimental part: The bactericidal activity of the compounds of the present invention is measured in a suspension test according to trivial modifications of the European Standard method EN 1040. Substances listed in Table 1 are tested against gram positive and gram negative bacteria, yeasts and moulds. A selection of the results is shown in the following. The pyrano pyranone derivatives are dissolved in ethanol or DMSO resulting in 1% stock solutions of the compounds. The cell densities of the bacterial suspensions used as inoculums for the suspension test are as follows (cfu=colony forming units): [table] For the suspension tests, an appropriate concentration of the test compound is mixed with a bacterial suspension resulting in a final cell count in the mixture of about 10^5 cfu/ml. These test mixtures are incubated at room temperature (22° C.+/−2° C.) and aliquots of 1 ml test mixture containing the test bacteria were taken after set contact times for determination of the residual cell count of test bacteria. For inactivation of the antimicrobial compounds, the 1 ml aliquots are diluted in 1:10 steps in a solution with 10% Tween, 3% lecithin, 0.1% histidine and 0.5% sodium thiosulfate.

Experiment [3] deals with Malassezia furfur DSM 6171, CIP 1636-86. Nature of the experiment: Agar incorporation test, minimum inhibitory concentration (MIC). The class given is cell-based. The following applies: M. fufur. As for the experimental part: For determination of the microbistatic activity, the Minimum Inhibitory Concentrations (MIC) of the test compounds is determined.
The pyrano pyranone derivatives are also tested in an agar incorporation test in order to determine their minimum inhibitory concentrations (MIC) against various tests organisms. A selection of the results is shown in the following.
For this compound, a 1% stock solutions i9s prepared in ethanol.
A dilution series of the test compound in 15 ml still liquid agar media are prepared with 400 ppm, 200 ppm, 100 ppm, 50 ppm, 25 ppm, 12.5 ppm, 6.25 ppm, 3.125 ppm and 1.56 pmm of active.
The media used for the agar plates are Müller-Hinton (Merck) for the determination of the MIC against bacteria and C. albicans and Sabouraud Agar (Merck) for the determination of the MIC against A. niger. For the determination of the MIC against Malassezia furfur DSM 6171, CIP 1636-86 Medium 472 (DSMZ—Deutsche Sammlung von Mikroorganismen and Zellkulturen GmbH) was used.
After solidification of the agar, all agar plates containing the test compounds were stored over night in the laboratory (at about 22° C.) for drying. […]
10 μl of these cell dilutions are then dotted onto the surface of the agar media. […] (for Aspergillus niger), 4 days at 30° C. and then the highest dilution of the test compound at which no more growth was observed (corresponds to the MIC) is determined. […]

The mark [4] stands for this setting: P. aeruginosa, contact time 24 h.

As for `CC1=Cc2c(cc(C)oc2=O)OC1C` (stereo not shown) [P-1], the “log reduction after set contact time” value in experiment [1] (contact time 24 h) is reported as greater than 3; in the experiment on A. niger ATCC 6275 (contact time 24 h), 2.2; in experiment [2] (E. coli, contact time 24 h), greater than 3; in experiment [2] (setting [4]), greater than 3; in experiment [2] (S. aureus, contact time 24 h), greater than 3. Further, the “residual cell count (cfu/ml) after set contact time” value (from here on “residual cell count (cfu/ml)”) in experiment [1] (contact time 24 h) is given as less than 100 cfu/ml; with A. niger ATCC 6275 (contact time 24 h), 1.2 × 10^3 cfu/ml; in experiment [2] (E. coli, contact time 24 h), less than 100 cfu/ml; in experiment [2] (setting [4]), less than 100 cfu/ml; in experiment [2] (S. aureus, contact time 24 h), less than 100 cfu/ml.

Turning to `CC(C)=CCCC1(C)C=Cc2c(cc(C)oc2=O)O1` (stereo not shown) [P-3], the “log reduction after set contact time” value in experiment [1] (contact time 24 h) is listed as greater than 3; in the experiment with A. niger ATCC 6275 (contact time 7 d), 2.2; in experiment [2] (E. coli, contact time 24 h), greater than 3; in experiment [2] (setting [4]) it was greater than 3; in experiment [2] (S. aureus, contact time 24 h) it was greater than 3. Moreover, the “residual cell count (cfu/ml)” value is less than 100 cfu/ml in experiment [1] (contact time 24 h); 1.2 × 10^3 cfu/ml in the experiment with A. niger ATCC 6275 (contact time 7 d); less than 100 cfu/ml in experiment [2] (E. coli, contact time 24 h); less than 100 cfu/ml in experiment [2] (setting [4]); less than 100 cfu/ml in experiment [2] (S. aureus, contact time 24 h).

`Cc1cc2c(c(=O)o1)C=CC(C)(C)O2` [P-4]: the “log reduction after set contact time” value is given as greater than 3 in experiment [1] (contact time 24 h); greater than 3 in the experiment on A. niger ATCC 6275 (contact time 24 h); greater than 3 in experiment [2] (E. coli, contact time 24 h); greater than 3 in experiment [2] (setting [4]); greater than 3 in experiment [2] (S. aureus, contact time 24 h). For the same molecule, the “residual cell count (cfu/ml)” value is listed as less than 100 cfu/ml in experiment [1] (contact time 24 h); less than 10 cfu/ml in the experiment with A. niger ATCC 6275 (contact time 24 h); less than 100 cfu/ml in experiment [2] (E. coli, contact time 24 h); less than 100 cfu/ml in experiment [2] (setting [4]); less than 100 cfu/ml in experiment [2] (S. aureus, contact time 24 h).

For `CC1=Cc2c(cc(C)oc2=O)OC1c1ccco1` (stereo not shown) [P-5], the “log reduction after set contact time” value in experiment [1] (contact time 7 d) is given as greater than 3; in experiment [2] (E. coli, contact time 24 h), greater than 3; in experiment [2] (setting [4]), greater than 3; in experiment [2] (S. aureus, contact time 7 d), greater than 3. Besides, the “residual cell count (cfu/ml)” value in experiment [1] (contact time 7 d) was less than 100 cfu/ml; in experiment [2] (E. coli, contact time 24 h), 4.0 × 10^2 cfu/ml; in experiment [2] (setting [4]) it was less than 100 cfu/ml; in experiment [2] (S. aureus, contact time 7 d), less than 100 cfu/ml. The same molecule gave an MIC in experiment [3] of 50 µg/mL (≈ 205 µM).

Turning to `CCCC1C=Cc2c(cc(C)oc2=O)O1` (stereo not shown) [P-6], the “log reduction after set contact time” value is greater than 3 in experiment [1] (contact time 24 h); greater than 3 in the experiment with A. niger ATCC 6275 (contact time 24 h); greater than 3 in experiment [2] (E. coli, contact time 24 h); greater than 3 in experiment [2] (setting [4]); greater than 3 in experiment [2] (S. aureus, contact time 24 h). Also, the “residual cell count (cfu/ml)” value in experiment [1] (contact time 24 h) is less than 100 cfu/ml; with A. niger ATCC 6275 (contact time 24 h) it was less than 10 cfu/ml; in experiment [2] (E. coli, contact time 24 h) it was less than 100 cfu/ml; in experiment [2] (setting [4]), less than 100 cfu/ml; in experiment [2] (S. aureus, contact time 24 h), less than 100 cfu/ml.
